Source: ChEMBL document CHEMBL1201862, “PubChem BioAssay data set” (2004)
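Exposure lasted 48 hours, with cells grown in 96-well plates and compounds tested at five concentrations. GI50 is the concentration that inhibits growth by half.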 Calls of active or inactive are those of the source. Cut-off read from the data, not from the text of the source: active = GI50 up to about 1.1 µM and inactive = higher.

Tests used:
Test in all cases: DTP human tumour cell line panel, 48 h
[1] = tested on: SW-620
[2] = tested on: NCI-H226
[3] = tested on: HOP-92
[4] = tested on: SNB-78
[5] = tested on: SF-295
[6] = tested on: NCI-H23
[7] = tested on: HT-29
[8] = tested on: Malme-3M
[9] = tested on: COLO 205
[10] = tested on: SNB-75
[11] = tested on: SK-MEL-28
[12] = tested on: OVCAR-5
[13] = tested on: HCT-116

Measured: GI50

Brc1ccc2[nH]c3c(C4=NCCC4)nccc3c2c1
inactive: [1] 21.3 µM | [2] 10.2 µM | [3] > 26.9 µM | [4] > 100 µM | [5] 10.6 µM | [6] 24.8 µM | [7] 11.2 µM | [8] 1.91 µM | [9] 23.3 µM | [10] 31.3 µM | [11] 16.4 µM | [12] 6.11 µM | [13] 9.86 µM
